Data from patent US3974281A, “5-Methyl-1-phenyl-2-(1H)-pyridone compositions and methods of use” (priority 1974, dated 1976).

Test system: rabbit leg muscle
Experiment: Local toxicity of intramuscular injection into rabbit leg muscle
Format: in vivo, New Zealand white rabbits
Method: six healthy adult New Zealand white rabbits from a stock colony were injected into the large muscle mass of the leg with a 2.0 milliliter volume of 2.0% aqueous solution of AMR-69. The response was compared to the intramuscular injection of 2.0 ml. of an isotonic solution of sodium chloride. The animals were carefully observed for any evidence of discomfort for a period of three hours. […] Three hours after the injection, the animals were sacrificed and a careful dissection was made around the injection site of the: (1) skin, (2) subcutaneous fascia, and (3) muscle tissue for a gross examination under a low powder binocular mircroscope for any tissue reaction. […] Similarly, no tissue reaction was found following the intramuscular injection of the isotonic saline. One change noted in two rabbits reflected a hemorrhage from a vein which was cut as the hypodermic needle passed into the tissue. After the gross examination, the muscle masses were dissected out, removed and preserved in buffered formalin for histological examination.

Cc1ccc(=O)n(-c2ccccc2)c1 [AMR-69, 5-methyl-1-phenyl-2-(1H)-pyridone]
microscopic examination of injection sites versus isotonic saline (2.0 ml of 2.0% aqueous solution i.m.): no difference between those of the isotonic saline and the parenteral AMR-69
histological examination of excised muscle (2.0 ml of 2.0% aqueous solution i.m., stained tissue sections): absence of any edema, erythema, chemosis, or necrosis
tissue reaction at injection site, gross examination (skin, subcutaneous fascia, muscle) (2.0 ml of 2.0% aqueous solution i.m., three hours): No evidence of tissue reaction was observed
discomfort after intramuscular injection (2.0 ml of 2.0% aqueous solution, three hours): No discomfort was evident
